# Source: BindingDB's records for doi:10.1124/mol.64.4.865 (The Danish University of Pharmaceutical Sciences, 2003)
# Several values for one entry are separate records, joined by “and”; a condition that tells them apart may be missing. Identical values can stand only once.
# What was measured:
# [1] = target: T1, Muscarinic acetylcholine receptor M2 (Rattus norvegicus, UniProt P10980)
# T1 sequence (P10980 whole entry): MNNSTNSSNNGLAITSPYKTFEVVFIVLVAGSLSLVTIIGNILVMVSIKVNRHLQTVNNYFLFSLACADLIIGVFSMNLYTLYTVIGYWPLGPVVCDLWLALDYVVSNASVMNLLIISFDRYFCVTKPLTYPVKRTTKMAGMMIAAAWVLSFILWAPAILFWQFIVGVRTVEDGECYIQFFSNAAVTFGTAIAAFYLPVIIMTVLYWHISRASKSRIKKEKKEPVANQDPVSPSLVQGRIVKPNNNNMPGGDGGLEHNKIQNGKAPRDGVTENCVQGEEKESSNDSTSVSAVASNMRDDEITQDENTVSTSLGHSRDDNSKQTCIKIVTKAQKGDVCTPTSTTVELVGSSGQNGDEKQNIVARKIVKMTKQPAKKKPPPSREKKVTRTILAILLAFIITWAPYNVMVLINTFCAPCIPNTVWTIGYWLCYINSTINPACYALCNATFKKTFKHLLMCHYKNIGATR
# [2] = target: Nicotinic acetylcholine receptor (Rattus leucopus, UniProt Q62594)
# Chain of Nicotinic acetylcholine receptor (Q62594 whole entry): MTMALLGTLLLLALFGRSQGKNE
# [3] = target: Neuronal acetylcholine receptor subunit alpha-3 (Rattus norvegicus, UniProt P04757)
# Chain of Neuronal acetylcholine receptor subunit alpha-3 (P04757 whole entry): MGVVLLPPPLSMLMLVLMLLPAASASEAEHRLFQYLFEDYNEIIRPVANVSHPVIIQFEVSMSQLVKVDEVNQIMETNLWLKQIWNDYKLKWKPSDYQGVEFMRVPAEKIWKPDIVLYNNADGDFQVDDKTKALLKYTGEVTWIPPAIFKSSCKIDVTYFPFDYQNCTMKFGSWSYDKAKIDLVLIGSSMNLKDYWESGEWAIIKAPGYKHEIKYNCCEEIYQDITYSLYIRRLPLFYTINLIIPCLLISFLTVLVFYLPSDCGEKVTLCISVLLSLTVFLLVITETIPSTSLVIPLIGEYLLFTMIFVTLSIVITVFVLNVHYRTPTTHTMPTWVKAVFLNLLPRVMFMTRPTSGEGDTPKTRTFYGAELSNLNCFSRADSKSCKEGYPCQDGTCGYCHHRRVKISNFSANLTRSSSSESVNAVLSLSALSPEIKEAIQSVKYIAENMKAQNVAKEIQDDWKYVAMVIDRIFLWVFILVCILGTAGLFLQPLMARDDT
# [4] = target: Neuronal acetylcholine receptor subunit alpha-4 (Rattus norvegicus, UniProt P09483)
# Chain of Neuronal acetylcholine receptor subunit alpha-4 (P09483 whole entry): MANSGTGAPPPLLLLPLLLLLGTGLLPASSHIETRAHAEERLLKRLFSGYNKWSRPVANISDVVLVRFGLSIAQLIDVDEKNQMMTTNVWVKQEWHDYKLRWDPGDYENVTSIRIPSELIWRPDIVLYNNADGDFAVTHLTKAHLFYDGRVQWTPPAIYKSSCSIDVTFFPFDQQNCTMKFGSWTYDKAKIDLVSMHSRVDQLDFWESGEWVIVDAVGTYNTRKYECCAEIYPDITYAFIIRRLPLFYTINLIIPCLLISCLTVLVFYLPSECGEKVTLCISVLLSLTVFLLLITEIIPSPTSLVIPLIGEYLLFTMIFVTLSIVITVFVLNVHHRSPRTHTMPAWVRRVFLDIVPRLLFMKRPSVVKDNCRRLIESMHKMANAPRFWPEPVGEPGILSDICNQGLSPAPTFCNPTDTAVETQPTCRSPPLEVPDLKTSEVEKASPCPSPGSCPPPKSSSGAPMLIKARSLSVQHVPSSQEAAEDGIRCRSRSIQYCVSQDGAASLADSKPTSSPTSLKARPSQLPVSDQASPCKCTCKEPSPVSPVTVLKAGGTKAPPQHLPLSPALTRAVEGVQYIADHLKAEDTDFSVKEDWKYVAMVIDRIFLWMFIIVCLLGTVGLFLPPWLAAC
# [5] = target: Neuronal acetylcholine receptor subunit alpha-7 (Rattus norvegicus, UniProt Q05941)
# Chain of Neuronal acetylcholine receptor subunit alpha-7 (Q05941 whole entry): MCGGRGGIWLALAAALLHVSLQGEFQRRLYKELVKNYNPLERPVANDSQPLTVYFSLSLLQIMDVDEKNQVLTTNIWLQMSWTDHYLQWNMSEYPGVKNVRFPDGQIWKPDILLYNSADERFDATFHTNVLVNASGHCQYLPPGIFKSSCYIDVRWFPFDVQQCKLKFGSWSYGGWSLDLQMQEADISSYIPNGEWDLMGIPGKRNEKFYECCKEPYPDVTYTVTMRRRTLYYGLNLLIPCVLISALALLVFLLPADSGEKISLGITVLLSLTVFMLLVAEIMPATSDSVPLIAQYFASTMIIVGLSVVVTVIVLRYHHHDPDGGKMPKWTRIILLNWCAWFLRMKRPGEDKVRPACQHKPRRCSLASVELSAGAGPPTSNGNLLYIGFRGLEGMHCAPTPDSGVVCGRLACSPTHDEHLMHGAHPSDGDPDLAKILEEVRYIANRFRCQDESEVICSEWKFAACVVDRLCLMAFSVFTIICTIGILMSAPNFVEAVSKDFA
SMILES,Ki [1],Ki [2],Ki [3],Ki [4],Ki [5]
"C[C@H](CCOC(=O)N(C)C)N(C)C [3-N,N-dimethylaminobutyl-N,N-dimethylcarbamate]",3600 nM,9 nM,370 nM,17 nM and 66 nM,> 10000 nM
O=c1cccc2n1CC1CNCC2C1 (stereo unspecified) [CAS_485-35-8],–,–,130 nM,1.3 nM and 6.8 nM,> 10000 nM
CN(C)C(=O)OCC[N+](C)(C)C [CAS_84607],1200 nM,20 nM,–,–,–
CN(C)CCOC(=O)N(C)C [DMCAE],> 10000 nM,5700 nM,–,–,–
COC(=O)Nc1ccc(Cl)c(Cl)c1 [SWEP],150 nM,23 nM,2700 nM,–,> 10000 nM
